Source: patent US20050250110A1, “PNA conjugate for treating chronic myeloid leukemia (CML)” (priority 2001, published 2005)

Tests used:
[1] = tested on: tumor cell line K562 (Ph-positive); assay: Growth behavior of K562 cells following administration of PNA conjugates (cell number, Coulter Counter); format: cell-based
tumor cell line K562 = assay: Apoptosis behavior of K562 cells: cell number after 24 h treatment and subsequent PNA removal; format: cell-based; settings: 100 nM for 24 h
Protocol: The cell number change is shown on a time axis. The treatment was carried out for 24 h and by means of subsequent PNA removal. Final concentration: 100 nM. Dark blue line: AS conjugate; magenta: random sequence conjugate; yellow: AS-non-ligated; blue: untreated control.
The question of the apoptosis behavior following the administration of a conjugate according to the invention (corresponding to Example 3 and FIG. 6) was studied as such. The incubation period was 24 hours with 5% CO2 at 37° C. in an incubator. Having removed the medium mixture and carrying out a wash step twice using fresh RPMI-1640, the same volume of fresh medium was added by pipetting and further cultured. The medium was changed every 72 hours. The cultures were treated as before: As in the previous experiment, a break-down of the untreated culture was again found after about 72 hours. […] The relative stability up to 144 hours following the removal of antisense NLS-PNA was striking in the culture treated with antisense NLS-PNA.

What does the source list for “Transport peptide (penetratin)-disulfide bridge-NLS—KK(FITC)—PNA^BCR/Abl (sequence of PNA^BCR/Abl: H2N-TGCGTGTGGATGATTCTTTGTTTTAA-COOH) [antisense NLS penetratin]”?
phenotype of the treated cells ([1]; 100 nM, in contrast to the controls): vital phenotype; stabilization of the cell number, time after the treatment ([1]; final concentration 100 nM, treatment throughout the experiment): 24 h; growth behavior (cell number change on a time axis) ([1]; final concentration 100 nM, treatment throughout the experiment, compared with untreated control): stagnation of the cell proliferation; relative stability of the culture, time following PNA removal (tumor cell line K562; then PNA removal): up to 144 hours; time of the maximum cell number following PNA removal (tumor cell line K562; then PNA removal): 120 h; cell growth / cell number after PNA removal (tumor cell line K562; then PNA removal and further culture, medium changed every 72 hours): minor increase in the cell number
